Experiment [1] has as its system sugar transporter (GLUT4). As to the kind of experiment: Evaluation of sugar-transporter (GLUT4) gene-expression promotion: GLUT4 mRNA by RT-PCR in C2C12. It counts as cell-based, Mouse. Particulars: Compounds at 1 μM or 10 μM, C2C12 myoblast cells, cultured one week, GAPDH endogenous control, vs DMSO control, FIG. 2.
Description: Mouse-muscle myoblast-cell lines C2C12 (cultured in DMEM FCS10%) were seeded in 24 well plates for determining the mRNA expression (1×10^4 cells/ml) and then were cultured for 24 hours. […] Then, the black-ginger extract and the separated fractions were cultured for one week. For control, the DMSO was added to the culture media in concentration of 0.1% (v/v). After being cultured for one week, the cells were collected, and the RNA was extracted. Regarding the collected RNA, by using RT-PCR (reverse-transcription polymerase chain-reaction), the expressed mRNA amount of the sugar transporter (GLUT4) was identified. At that time, as an endogenous-control, GAPDH (Glyceraldehyde 3-phosphate dehydrogenase) was used.
For a further experiment, the system named is PGC-1α. The experiment can be described thus: Evaluation of the PGC-1α-expression promoting effect: PGC-1α mRNA by RT-PCR in C2C12. The experiment is classed as cell-based, Mouse. Particulars: Compounds at 1 μM or 10 μM, C2C12 myoblast cells, cultured one week, GAPDH endogenous control, vs DMSO control, FIG. 3. The protocol:
Mouse-muscle myoblast-cell lines C2C12 (cultured in DMEM FCS10%) were seeded in 24 well plates for determining the mRNA expression (1×10^4 cells/ml) and then were cultured for 24 hours. After 24 hours, the black-ginger extract (10 μg/mL) or the separated fractions (Compounds 1-8) were added to the culture media (DMEM FCS 1%) for differentiation induction until the concentration became 1 μM or 10 μM (i.e. until the concentration of the sample dissolved in each DMSO (dimethyl sulfoxide) became 0.1% (v/v) regarding the culture media). Then, the black-ginger extract and the separated fractions were cultured for one week. For control, the DMSO was added to the culture media in concentration of 0.1% (v/v). After being cultured for one week, the cells were collected, and the RNA was extracted. Regarding the collected RNA, by using RT-PCR (reverse-transcription polymerase-chain reaction), the expressed mRNA amount of the PGC-1α was identified. At that time, as an endogenous-control, GAPDH (Glyceraldehyde 3-phosphate dehydrogenase) was used.

Entries after “also recorded” stand apart in the source; their conditions may differ.

For `COc1cc(O)c2c(=O)cc(-c3ccccc3)oc2c1` [Compound 2, Techtochrysin], the “mRNA expression of the sugar transporter (GLUT4)” value (from here on “mRNA expression … (GLUT4)”) in experiment [1] was “Significant expressed-promotion increases”. The “mRNA expression of the PGC-1α” value in the experiment on PGC-1α is “Significant increases; also recorded: stronger activity”.

`COc1ccc(-c2oc3cc(OC)cc(O)c3c(=O)c2OC)cc1` [Compound 3, 3,7,4′-Trimethylkaempferol]: the “mRNA expression … (GLUT4)” value in experiment [1] is “Significant expressed-promotion increases”.

On to `COc1cc(O)c2c(=O)c(OC)c(-c3ccc(OC)c(OC)c3)oc2c1` [Compound 4, retusine], for which, in the experiment with PGC-1α, the “mRNA expression of the PGC-1α” value was “lower activity”.

As for `COc1cc(OC)c2c(=O)cc(-c3ccccc3)oc2c1` [Compound 8, 5,7-dimethoxyflavone], the “mRNA expression … (GLUT4)” value in experiment [1] is reported as “Significant expressed-promotion increases”. In addition, the “mRNA expression of the PGC-1α” value in the experiment with PGC-1α is “Significant increases; also recorded: stronger activity”.

(Values after patent publication US20180117000A1, “ENERGY METABOLIC ACTIVATING AGENT FOR MUSCLE CELLS” (ORYZA OIL & FAT CHEMICAL CO., LTD., priority 2015, published 2018).)
